Several values for one entry are separate records, joined by “and”; a condition that tells them apart may be missing. Equal entries are not always repeated. Inconclusive results and toxic doses are left out. How the source made its calls: active means survival T/C of 150% or more; inactive means T/C below 125% in these data.
System: CD2F1 mice, L1210 leukemia ip, survival T/C
Test: NCI In Vivo Anticancer Drug Screen. Data for tumor model L1210 Leukemia (intraperitoneal) in CD2F1 (CDF1) mice
Conditions: higher = longer survival
In short: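 Each value reflects a quotient of treated over vehicle control outcomes in mice with a transplanted tumor.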

[1] = endpoint: mean survival time, dose: 100.0 mg/kg/injection, schedule: Q04DX003 (ip), vehicle: saline with Tween-80
[2] = endpoint: mean survival time, dose: 200.0 mg/kg/injection, schedule: Q04DX003 (ip), vehicle: saline with Tween-80
[3] = endpoint: mean survival time, dose: 400.0 mg/kg/injection, schedule: Q04DX003 (ip), vehicle: saline with Tween-80
[4] = endpoint: mean survival time, dose: 100.0 mg/kg/injection, schedule: Q01DX009 (ip), vehicle: saline with Tween-80
[5] = endpoint: mean survival time, dose: 200.0 mg/kg/injection, schedule: Q01DX009 (ip), vehicle: saline with Tween-80
[6] = endpoint: mean survival time, dose: 400.0 mg/kg/injection, schedule: Q01DX009 (ip), vehicle: saline with Tween-80

Measured: T/C

CN(Cc1cnc2nc(N)nc(N)c2c1)c1ccc(C(=O)NC(CCC(=O)O)C(=O)O)cc1 (stereo not drawn)
active: endpoint: median survival time, dose: 4.0 mg/kg/injection, schedule: Q01DX005 (ip), vehicle: other 158 % of control | endpoint: median survival time, dose: 8.0 mg/kg/injection, schedule: Q01DX005 (ip), vehicle: other 158 % of control

CCCCCCC(=O)O.[Pb]
inactive: endpoint: mean survival time, dose: 75.0 mg/kg/injection, schedule: Q01DX001 (ip), vehicle: other 107 % of control | endpoint: mean survival time, dose: 150.0 mg/kg/injection, schedule: Q01DX001 (ip), vehicle: other 97 % of control | endpoint: mean survival time, dose: 300.0 mg/kg/injection, schedule: Q01DX001 (ip), vehicle: other 103 % of control

CC(O)CC1CCCC(C)N1 (stereo not drawn)
inactive: endpoint: mean survival time, dose: 50.0 mg/kg/injection, schedule: Q04DX003 (ip), vehicle: saline with Tween-80 90 % of control and 100 % of control | endpoint: mean survival time, dose: 100.0 mg/kg/injection, schedule: Q01DX001 (ip), vehicle: saline with Tween-80 101 % of control | endpoint: mean survival time, dose: 100.0 mg/kg/injection, schedule: Q04DX002 (ip), vehicle: saline with Tween-80 100 % of control and 106 % of control | [1] 100 % of control and 101 % of control | endpoint: mean survival time, dose: 200.0 mg/kg/injection, schedule: Q01DX001 (ip), vehicle: saline with Tween-80 101 % of control | endpoint: mean survival time, dose: 200.0 mg/kg/injection, schedule: Q04DX002 (ip), vehicle: saline with Tween-80 98 % of control and 100 % of control | [2] 93 % of control and 100 % of control

CN(C)Cc1cn(C2CC(O)C(CO)O2)c(=O)[nH]c1=O (stereo not drawn)
inactive: endpoint: mean survival time, dose: 12.5 mg/kg/injection, schedule: Q01DX005 (ip), vehicle: water 101 % of control | endpoint: mean survival time, dose: 25.0 mg/kg/injection, schedule: Q01DX005 (ip), vehicle: water 98 % of control | endpoint: mean survival time, dose: 50.0 mg/kg/injection, schedule: Q01DX005 (ip), vehicle: water 104 % of control | endpoint: mean survival time, dose: 100.0 mg/kg/injection, schedule: Q01DX005 (ip), vehicle: water 106 % of control | endpoint: mean survival time, dose: 200.0 mg/kg/injection, schedule: Q01DX005 (ip), vehicle: water 104 % of control

Oc1ccc(C/C=C/c2ccccc2)cc1
inactive: [1] 102 % of control | [2] 100 % of control | [3] 102 % of control

Nc1ccc2ccccc2c1S(=O)(=O)O
inactive: [4] 102 % of control | [5] 93 % of control | [6] 90 % of control

CCc1cc(C(C)(C)C)c(O)c(C(C)(C)C)c1
inactive: endpoint: mean survival time, dose: 25.0 mg/kg/injection, schedule: Q01DX009 (ip), vehicle: Klucel (hydroxypropylcellulose) (HPC) 102 % of control | endpoint: mean survival time, dose: 50.0 mg/kg/injection, schedule: Q01DX009 (ip), vehicle: Klucel (hydroxypropylcellulose) (HPC) 102 % of control | endpoint: mean survival time, dose: 100.0 mg/kg/injection, schedule: Q01DX009 (ip), vehicle: Klucel (hydroxypropylcellulose) (HPC) 98 % of control

NC(=S)c1ccc(OCCCc2ccccc2)cc1
inactive: endpoint: mean survival time, dose: 25.0 mg/kg/injection, schedule: Q01DX009 (ip), vehicle: saline with Tween-80 95 % of control | endpoint: mean survival time, dose: 50.0 mg/kg/injection, schedule: Q01DX009 (ip), vehicle: saline with Tween-80 95 % of control

CCc1cc(C)cc(OC(=O)Nc2ccc(Cl)cc2)c1
inactive: [4] 93 % of control | [1] 107 % of control | [5] 100 % of control | [2] 93 % of control | [6] 96 % of control | [3] 91 % of control

CC1(C)CSC(=S)N1
inactive: endpoint: mean survival time, dose: 2.5 mg/kg/injection, schedule: Q01DX009 (ip), vehicle: saline with Tween-80 98 % of control | endpoint: mean survival time, dose: 5.0 mg/kg/injection, schedule: Q01DX009 (ip), vehicle: saline with Tween-80 95 % of control | endpoint: mean survival time, dose: 5.0 mg/kg/injection, schedule: Q04DX003 (ip), vehicle: saline with Tween-80 103 % of control | endpoint: mean survival time, dose: 10.0 mg/kg/injection, schedule: Q01DX009 (ip), vehicle: saline with Tween-80 107 % of control | endpoint: mean survival time, dose: 10.0 mg/kg/injection, schedule: Q04DX003 (ip), vehicle: saline with Tween-80 92 % of control

CN(C)N=Nc1c(F)c(F)c(C(N)=O)c(F)c1F
inactive: endpoint: mean survival time, dose: 3.13 mg/kg/injection, schedule: Q01DX009 (ip), vehicle: other 115 % of control | endpoint: mean survival time, dose: 6.25 mg/kg/injection, schedule: Q01DX009 (ip), vehicle: other 120 % of control | endpoint: mean survival time, dose: 50.0 mg/kg/injection, schedule: Q01DX009 (ip), vehicle: other 96 % of control | endpoint: mean survival time, dose: 100.0 mg/kg/injection, schedule: Q01DX009 (ip), vehicle: other 105 % of control

[Cl][Pt+2][Cl].[NH-]C1CCCCC1C1CCCCC1[NH-] (stereo not drawn)
active: endpoint: mean survival time, dose: 25.0 mg/kg/injection, schedule: Q04DX003 (ip), vehicle: distilled water + Tween-80 173 % of control
inactive: endpoint: mean survival time, dose: 6.25 mg/kg/injection, schedule: Q04DX003 (ip), vehicle: distilled water + Tween-80 123 % of control | endpoint: mean survival time, dose: 100.0 mg/kg/injection, schedule: Q04DX003 (ip), vehicle: distilled water + Tween-80 86 % of control

CCCCCOC(=O)CCCc1ccc(N(CCCl)CCCl)cc1
inactive: endpoint: mean survival time, dose: 12.5 mg/kg/injection, schedule: Q01DX009 (ip), vehicle: saline 118 % of control | endpoint: mean survival time, dose: 100.0 mg/kg/injection, schedule: Q01DX009 (ip), vehicle: saline 88 % of control
